Test results: BindingDB's records for doi:10.1021/acs.jmedchem.7b01231 (Dongguk University, 2017)

Molecular target: Hypoxia-inducible factor 1-alpha (Homo sapiens, UniProt Q16665)
Experiment: ChEBML_1681384
Protocol: Inhibition of HIF-1alpha in human HCT116 cells incubated for 12 hrs under hypoxic conditions by HRE dual-luciferase reporter gene assay

Sequence of Hypoxia-inducible factor 1-alpha (Q16665 whole entry): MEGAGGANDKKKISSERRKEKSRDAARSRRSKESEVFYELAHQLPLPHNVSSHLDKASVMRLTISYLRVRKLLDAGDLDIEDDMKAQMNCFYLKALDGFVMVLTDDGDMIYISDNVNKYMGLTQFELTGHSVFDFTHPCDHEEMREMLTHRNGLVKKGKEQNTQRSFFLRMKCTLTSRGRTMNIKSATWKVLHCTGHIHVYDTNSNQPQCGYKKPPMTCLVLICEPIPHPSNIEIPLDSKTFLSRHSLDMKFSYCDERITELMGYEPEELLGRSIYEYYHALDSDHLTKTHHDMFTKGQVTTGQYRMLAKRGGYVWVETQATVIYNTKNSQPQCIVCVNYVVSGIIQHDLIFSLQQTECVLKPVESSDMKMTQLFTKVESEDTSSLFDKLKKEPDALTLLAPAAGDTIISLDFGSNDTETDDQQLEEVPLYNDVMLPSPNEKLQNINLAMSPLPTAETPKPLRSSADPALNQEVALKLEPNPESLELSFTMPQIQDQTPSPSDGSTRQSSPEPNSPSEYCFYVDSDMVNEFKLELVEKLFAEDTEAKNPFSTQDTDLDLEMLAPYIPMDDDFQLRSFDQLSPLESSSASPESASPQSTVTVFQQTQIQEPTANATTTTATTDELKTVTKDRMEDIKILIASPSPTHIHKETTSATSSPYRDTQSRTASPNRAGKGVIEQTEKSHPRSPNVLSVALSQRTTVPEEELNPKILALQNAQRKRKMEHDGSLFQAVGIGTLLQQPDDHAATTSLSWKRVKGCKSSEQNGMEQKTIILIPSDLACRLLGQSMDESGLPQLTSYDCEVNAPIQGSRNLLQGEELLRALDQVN

First: COC(=O)c1cccc(NC(=O)CCCOc2ccc(C(C)(C)CC(C)(C)C)cc2)c1
Second: COC(=O)c1ccc(OC)c(NC(=O)COc2ccc(C(C)(C)CC(C)(C)C)cc2)c1
The IC50 of the first is lower: 1.4 µM for the first, > 40 µM for the second.

For CCCCCc1ccc(OCC(=O)Nc2cccc(C(=O)OC)c2)cc1, the IC50 was > 40 µM.
